Assays:
[1] = target: T1, Poly [ADP-ribose] polymerase tankyrase-1 (Homo sapiens, UniProt O95271); assay: Inhibition of human TNKS1 catalytic activity
T1 sequence (O95271 whole entry): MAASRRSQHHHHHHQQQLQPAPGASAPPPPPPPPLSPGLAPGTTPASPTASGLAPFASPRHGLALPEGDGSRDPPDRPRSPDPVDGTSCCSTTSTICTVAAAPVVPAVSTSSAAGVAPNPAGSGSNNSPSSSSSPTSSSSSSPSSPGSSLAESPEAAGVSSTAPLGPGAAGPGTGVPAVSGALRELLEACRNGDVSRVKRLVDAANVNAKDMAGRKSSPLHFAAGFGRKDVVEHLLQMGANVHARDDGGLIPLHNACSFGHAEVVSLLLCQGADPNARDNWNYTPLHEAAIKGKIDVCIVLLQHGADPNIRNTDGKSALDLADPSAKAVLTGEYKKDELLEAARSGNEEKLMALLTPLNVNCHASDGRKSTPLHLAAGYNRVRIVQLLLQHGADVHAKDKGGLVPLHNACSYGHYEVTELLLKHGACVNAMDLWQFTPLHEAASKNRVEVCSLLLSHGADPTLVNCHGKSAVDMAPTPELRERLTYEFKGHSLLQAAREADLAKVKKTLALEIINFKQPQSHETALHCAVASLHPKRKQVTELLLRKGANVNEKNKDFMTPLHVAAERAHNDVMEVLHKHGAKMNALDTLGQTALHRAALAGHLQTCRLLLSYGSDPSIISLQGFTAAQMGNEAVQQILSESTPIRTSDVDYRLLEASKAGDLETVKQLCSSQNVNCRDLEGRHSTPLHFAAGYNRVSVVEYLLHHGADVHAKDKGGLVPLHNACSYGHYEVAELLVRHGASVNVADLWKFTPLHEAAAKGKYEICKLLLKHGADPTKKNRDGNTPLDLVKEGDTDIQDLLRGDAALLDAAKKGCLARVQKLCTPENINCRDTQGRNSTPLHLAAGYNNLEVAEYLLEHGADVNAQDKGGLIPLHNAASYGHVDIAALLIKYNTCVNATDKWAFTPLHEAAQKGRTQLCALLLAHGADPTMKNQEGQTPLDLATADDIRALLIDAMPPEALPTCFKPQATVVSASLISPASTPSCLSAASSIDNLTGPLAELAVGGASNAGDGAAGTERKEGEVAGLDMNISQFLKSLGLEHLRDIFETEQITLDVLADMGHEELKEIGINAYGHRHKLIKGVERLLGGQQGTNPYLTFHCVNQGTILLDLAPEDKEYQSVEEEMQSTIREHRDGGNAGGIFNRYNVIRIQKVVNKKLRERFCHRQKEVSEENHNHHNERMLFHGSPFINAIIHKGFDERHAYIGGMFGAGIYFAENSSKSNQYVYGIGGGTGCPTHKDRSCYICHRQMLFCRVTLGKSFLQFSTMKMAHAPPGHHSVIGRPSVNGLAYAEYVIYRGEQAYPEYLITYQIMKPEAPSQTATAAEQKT

HT-29 = assay: Antiproliferative activity against human HT-29 cells
[2] = Antiproliferative activity against human FEK4 cells
[3] = target: T2, Poly [ADP-ribose] polymerase tankyrase-2 (Homo sapiens, UniProt Q9H2K2); assay: Inhibition of human TNKS2 catalytic activity
T2 sequence (Q9H2K2 whole entry): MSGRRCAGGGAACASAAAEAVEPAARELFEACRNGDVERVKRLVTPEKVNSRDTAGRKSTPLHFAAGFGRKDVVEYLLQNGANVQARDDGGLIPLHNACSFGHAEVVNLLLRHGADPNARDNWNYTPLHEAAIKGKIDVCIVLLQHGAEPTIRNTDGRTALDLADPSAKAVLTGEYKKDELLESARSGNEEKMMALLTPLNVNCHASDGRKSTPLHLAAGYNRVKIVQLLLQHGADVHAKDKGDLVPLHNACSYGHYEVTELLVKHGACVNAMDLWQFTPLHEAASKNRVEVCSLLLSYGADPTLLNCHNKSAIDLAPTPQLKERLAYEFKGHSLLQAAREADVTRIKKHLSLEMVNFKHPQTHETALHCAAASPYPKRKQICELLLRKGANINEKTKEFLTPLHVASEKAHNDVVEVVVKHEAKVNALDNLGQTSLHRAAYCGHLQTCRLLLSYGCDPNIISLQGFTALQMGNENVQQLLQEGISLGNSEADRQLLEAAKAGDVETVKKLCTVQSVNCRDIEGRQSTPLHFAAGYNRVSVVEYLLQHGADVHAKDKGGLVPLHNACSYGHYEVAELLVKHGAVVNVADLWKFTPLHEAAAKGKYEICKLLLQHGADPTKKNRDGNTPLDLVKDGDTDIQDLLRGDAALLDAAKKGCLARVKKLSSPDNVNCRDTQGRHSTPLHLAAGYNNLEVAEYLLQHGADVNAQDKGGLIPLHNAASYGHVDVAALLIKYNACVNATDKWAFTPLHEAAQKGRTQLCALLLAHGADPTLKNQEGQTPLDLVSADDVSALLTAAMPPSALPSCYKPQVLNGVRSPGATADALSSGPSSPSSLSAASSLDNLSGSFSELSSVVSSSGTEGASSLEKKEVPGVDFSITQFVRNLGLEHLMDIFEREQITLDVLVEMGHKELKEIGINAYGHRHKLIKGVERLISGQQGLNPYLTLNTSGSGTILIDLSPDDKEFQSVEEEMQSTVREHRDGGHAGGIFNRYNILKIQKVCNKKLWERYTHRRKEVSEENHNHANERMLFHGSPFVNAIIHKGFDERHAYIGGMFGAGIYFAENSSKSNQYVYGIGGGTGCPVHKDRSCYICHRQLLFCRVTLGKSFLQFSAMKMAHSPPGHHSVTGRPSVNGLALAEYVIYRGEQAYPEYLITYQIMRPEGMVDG

[4] = target: Poly [ADP-ribose] polymerase 1 (Homo sapiens, UniProt P09874); assay: Inhibition of human PARP1
Poly [ADP-ribose] polymerase 1, sequence (P09874 whole entry): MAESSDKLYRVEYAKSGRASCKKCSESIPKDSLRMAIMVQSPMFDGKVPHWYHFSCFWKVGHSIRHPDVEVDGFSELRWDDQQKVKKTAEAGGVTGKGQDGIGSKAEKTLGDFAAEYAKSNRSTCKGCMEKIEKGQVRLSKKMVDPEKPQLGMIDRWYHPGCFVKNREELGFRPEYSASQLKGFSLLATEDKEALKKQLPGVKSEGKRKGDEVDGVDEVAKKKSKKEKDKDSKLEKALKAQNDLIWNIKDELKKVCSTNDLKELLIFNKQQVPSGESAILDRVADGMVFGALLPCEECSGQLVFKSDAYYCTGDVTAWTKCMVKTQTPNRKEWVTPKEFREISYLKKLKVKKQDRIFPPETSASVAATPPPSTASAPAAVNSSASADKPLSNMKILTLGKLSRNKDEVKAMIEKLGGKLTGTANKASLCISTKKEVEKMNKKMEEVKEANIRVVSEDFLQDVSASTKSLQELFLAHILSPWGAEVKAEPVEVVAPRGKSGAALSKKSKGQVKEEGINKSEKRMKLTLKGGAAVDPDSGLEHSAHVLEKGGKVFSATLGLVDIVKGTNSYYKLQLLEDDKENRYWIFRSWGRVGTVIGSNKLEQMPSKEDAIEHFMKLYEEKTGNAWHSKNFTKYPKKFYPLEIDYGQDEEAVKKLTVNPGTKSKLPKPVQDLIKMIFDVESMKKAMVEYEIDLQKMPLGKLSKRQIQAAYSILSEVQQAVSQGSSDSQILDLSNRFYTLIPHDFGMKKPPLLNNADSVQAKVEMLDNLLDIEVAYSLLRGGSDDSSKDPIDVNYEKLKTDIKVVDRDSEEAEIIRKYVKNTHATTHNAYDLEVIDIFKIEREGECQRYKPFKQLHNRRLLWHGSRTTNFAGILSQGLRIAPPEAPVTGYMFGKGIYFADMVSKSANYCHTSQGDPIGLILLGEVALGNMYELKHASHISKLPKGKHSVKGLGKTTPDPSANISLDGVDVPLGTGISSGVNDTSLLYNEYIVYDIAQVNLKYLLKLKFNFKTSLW

| Structure (SMILES) | IC50 [1] [µM] | IC50 (HT-29) [µM] | IC50 [2] [µM] | IC50 [3] [µM] | IC50 [4] [µM] |
| --- | --- | --- | --- | --- | --- |
| O=c1[nH]c(-c2ccccc2)cc2ncccc12 | 5 | > 500 | > 500 | – | – |
| O=c1[nH]c(-c2ccccc2)cc2ccncc12 | 1.3 | > 500 | > 500 | – | – |
| Cc1ccc(-c2cc3cnccc3c(=O)[nH]2)cc1 | 6.2 | 157 | > 500 | – | – |
| CN1CCCc2c1cc(-c1ccccc1)[nH]c2=O | 0.097 | > 500 | > 500 | – | – |
| COc1ccc(-c2cc3c(c(=O)[nH]2)CCCN3C)cc1 | 0.0011 | > 200 | > 200 | – | – |
| CN1CCCc2c1cc(-c1ccc(C(F)(F)F)cc1)[nH]c2=O | 0.0015 | > 200 | > 200 | – | – |
| CN1CCCc2c1cc(-c1ccc(Cl)cc1)[nH]c2=O | 0.021 | 26 | > 500 | – | – |
| CN1CCCc2c1cc(-c1ccc(Br)cc1)[nH]c2=O | 0.0061 | 26 | > 500 | 0.423 | 2 |
